Reference: patent publication US8440628B2, “Medical compositions containing ghrelin” (Daiichi Sankyo Company, Limited, priority 2002, dated 2013)
Where two headings read alike, the source gives them in different places.

How the values were obtained:
[1] = Stability of human ghrelin in pH-adjusted purified water at 25°C (Example 7); assay type: physicochemical; settings: for Peak area ratio to total peak area: 25±2°C
Description: Human ghrelin was dissolved in the purified water with about 0.03 μmol/mL (0.1 mg/mL). […] This solution was divided into quarter, and one portion was kept alone and the pH values of the remaining three portions were adjusted to pH 1.8 (with 17 mM of hydrochloric acid), pH 3.9 (with 0.20 mM of hydrochloric acid) and pH 7.8 (with 0.24 mM of sodium hydroxide) respectively, by adding along with hydrochloric acid or sodium hydroxide aqueous solution.

[2] = assay type: physicochemical
Description: Human ghrelin, which is one of the ghrelins, was dissolved in the 0.05M glycine hydrochloride buffer solutions (pH 3.5) to obtain an aqueous solution containing human ghrelin with following five concentrations, which are applicable for medical usage.
0.03 nmol/mL (0.1 μg/mL); 0.3 nmol/mL (1.0 μg/mL);
3.0 nmol/mL (10.0 μg/mL); 0.3 μmol/mL (1.0 mg/mL);
Each solutions were stored at 25±2° C. for 24 hours, and after storage, the HPLC analyses of each solutions were conducted to calculate the residual ratios from the concentration of human ghrelin. The changes of pH value were also examined to confirm no significant changes of pH in solutions occurred.
The residual ratio of the solution before storage was referred to as 100%, and the residual ratio of each solution after storage and the changes of pH value of each solution were summarized in the following Table 4.

[3] = Lyophilized powder for in situ preparation: solubility, content and pH after redissolving (Example 11); settings: solution just after preparation, before lyophilization
Description: Human ghrelin was dissolved in 5% mannitol-0.05M glycine hydrochloride buffer solution (pH 3.5) with about 0.3 nmol/mL (1.0 μg/mL) concentration, and the human ghrelin concentration of this solution just after preparation was measured by HPLC method, and pH value of this solution was also measured. […] Then, this solution was lyophilized at −25° C. for 24 hours in vacuo, and the obtained powder was further dried at 20° C. for 24 hours in vacuo.

[4] = Stability of human ghrelin in 0.1M HCl and Mcllvain buffer solutions of various pH at 25°C (Example 2, HPLC peak area ratio); assay type: physicochemical
Description: Human ghrelin was dissolved in the following aqueous solutions in the concentration of about 0.15 μmol/mL (0.5 mg/mL).
0.1M HCl aqueous solution (pH: 1.1)
The pH was adjusted with 0.1M citric aqueous acid and 0.2M dibasic sodium phosphate aqueous solution.
Each solution were stored at 25±2° C. for 8, 24, 48 and 72 hours respectively, and the obtained solutions were detected by HPLC analysis in comparison to the solutions before storage. […] No significant changes of pH in solution before storage and after storage were observed.

[5] = h. ghrelin 0.03 nmol/mL in 0.05M glycine hydrochloride buffer (pH 3.5), after storage for 25° C./24 hours
[6] = h. ghrelin 0.03 nmol/mL in 0.05M glycine hydrochloride buffer (pH 3.5), just after preparation
[7] = h. ghrelin 0.3 nmol/mL in 0.05M glycine hydrochloride buffer (pH 3.5), after storage for 25° C./24 hours
[8] = h. ghrelin 0.3 nmol/mL in 0.05M glycine hydrochloride buffer (pH 3.5), just after preparation
[9] = h. ghrelin 3.0 nmol/mL in 0.05M glycine hydrochloride buffer (pH 3.5), after storage for 25° C./24 hours
[10] = h. ghrelin 3.0 nmol/mL in 0.05M glycine hydrochloride buffer (pH 3.5), just after preparation
[11] = h. ghrelin 0.3 μmol/mL in 0.05M glycine hydrochloride buffer (pH 3.5), after storage for 25° C./24 hours
[12] = h. ghrelin 0.3 μmol/mL in 0.05M glycine hydrochloride buffer (pH 3.5), just after preparation
[13] = h. ghrelin 3 μmol/mL in 0.05M glycine hydrochloride buffer (pH 3.5), after storage for 25° C./24 hours
[14] = h. ghrelin 3 μmol/mL in 0.05M glycine hydrochloride buffer (pH 3.5), just after preparation
[15] = human ghrelin 0.5 mg/mL in 0.1M HCl aqueous solution, pH 1, 25±2°C, 8 hr. after
[16] = human ghrelin 0.5 mg/mL in 0.1M HCl aqueous solution, pH 1, 25±2°C, 24 hr. after
[17] = human ghrelin 0.5 mg/mL in 0.1M HCl aqueous solution, pH 1, 25±2°C, 48 hr. after
[18] = human ghrelin 0.5 mg/mL in 0.1M HCl aqueous solution, pH 1, 25±2°C, 72 hr. after
[19] = human ghrelin 0.5 mg/mL in 0.1M HCl aqueous solution, pH 1, 25±2°C, before storage
[20] = human ghrelin 0.5 mg/mL in Mcllvain buffer, pH 2, 25±2°C, 8 hr. after
[21] = human ghrelin 0.5 mg/mL in Mcllvain buffer, pH 2, 25±2°C, 24 hr. after
[22] = human ghrelin 0.5 mg/mL in Mcllvain buffer, pH 2, 25±2°C, 48 hr. after
[23] = human ghrelin 0.5 mg/mL in Mcllvain buffer, pH 2, 25±2°C, 72 hr. after
[24] = human ghrelin 0.5 mg/mL in Mcllvain buffer, pH 2, 25±2°C, before storage
[25] = human ghrelin 0.5 mg/mL in Mcllvain buffer, pH 3, 25±2°C, 8 hr. after

CCCCCCCC(=O)OC[C@H](NC(=O)[C@H](CO)NC(=O)CN)C(=O)N[C@@H](Cc1ccccc1)C(=O)N[C@@H](CC(C)C)C(=O)N[C@@H](CO)C(=O)N1CCC[C@H]1C(=O)N[C@@H](CCC(=O)O)C(=O)N[C@@H](Cc1c[nH]cn1)C(=O)N[C@@H](CCC(N)=O)C(=O)N[C@@H](CCCNC(=N)N)C(=O)N[C@H](C(=O)N[C@@H](CCC(N)=O)C(=O)N[C@@H](CCC(N)=O)C(=O)N[C@@H](CCCNC(=N)N)C(=O)N[C@@H](CCCCN)C(=O)N[C@@H](CCC(=O)O)C(=O)N[C@@H](CO)C(=O)N[C@@H](CCCCN)C(=O)N[C@@H](CCCCN)C(=O)N1CCC[C@H]1C(=O)N1CCC[C@H]1C(=O)N[C@@H](C)C(=O)N[C@@H](CCCCN)C(=O)N[C@@H](CC(C)C)C(=O)N[C@@H](CCC(N)=O)C(=O)N1CCC[C@H]1C(=O)N[C@@H](CCCNC(=N)N)C(=O)O)C(C)C [Human ghrelin]
Peak area ratio to total peak area ([1]; human ghrelin 0.1 mg/mL in purified water adjusted to pH 1.8 with hydrochloric acid, 1 day after): 97.68% | Peak area ratio to total peak area ([1]; human ghrelin 0.1 mg/mL in purified water adjusted to pH 1.8 with hydrochloric acid, 1 day after, listed as human ghrelin): less than 98% | Peak area ratio to total peak area ([1]; human ghrelin 0.1 mg/mL in purified water adjusted to pH 1.8 with hydrochloric acid, 3 days after): 95.01% | Peak area ratio to total peak area ([1]; human ghrelin 0.1 mg/mL in purified water adjusted to pH 1.8 with hydrochloric acid, before storage): 99.16% | Peak area ratio to total peak area ([1]; human ghrelin 0.1 mg/mL in purified water adjusted to pH 3.9 with hydrochloric acid, 1 day after): 99.19% | Peak area ratio to total peak area ([1]; human ghrelin 0.1 mg/mL in purified water adjusted to pH 3.9 with hydrochloric acid, 3 days after): 99.14% | Peak area ratio to total peak area ([1]; human ghrelin 0.1 mg/mL in purified water adjusted to pH 3.9 with hydrochloric acid, before storage): 99.21% | Peak area ratio to total peak area ([1]; human ghrelin 0.1 mg/mL in purified water adjusted to pH 7.8 with sodium hydroxide, 1 day after): 94.78% | Peak area ratio to total peak area ([1]; human ghrelin 0.1 mg/mL in purified water adjusted to pH 7.8 with sodium hydroxide, 1 day after, listed as human ghrelin): less than 98% | Peak area ratio to total peak area ([1]; human ghrelin 0.1 mg/mL in purified water adjusted to pH 7.8 with sodium hydroxide, 3 days after): 87.84% | Peak area ratio to total peak area ([1]; human ghrelin 0.1 mg/mL in purified water adjusted to pH 7.8 with sodium hydroxide, before storage): 98.85% | Peak area ratio to total peak area ([1]; human ghrelin 0.1 mg/mL in purified water, pH 4.7 (not adjusted), 1 day after): 99.12% | Peak area ratio to total peak area ([1]; human ghrelin 0.1 mg/mL in purified water, pH 4.7 (not adjusted), 3 days after): 98.94% | Peak area ratio to total peak area ([1]; human ghrelin 0.1 mg/mL in purified water, pH 4.7 (not adjusted), before storage): 99.20% | pH of the solution ([1]; human ghrelin dissolved in purified water, about 0.03 μmol/mL (0.1 mg/mL)): 4.7 | Residual ratio [2, 5]: 62% | pH [2, 5]: 3.5 | Residual ratio [2, 6]: 100% | pH [2, 6]: 3.4 | Residual ratio [2, 7]: 98% | pH [2, 7]: 3.5 | Residual ratio [2, 8]: 100% | pH [2, 8]: 3.5 | Residual ratio [2, 9]: 98% | pH [2, 9]: 3.6 | Residual ratio [2, 10]: 100% | pH [2, 10]: 3.5 | Residual ratio [2, 11]: 101% | pH [2, 11]: 3.3 | Residual ratio [2, 12]: 100% | pH [2, 12]: 3.4 | Residual ratio [2, 13]: 101% | pH [2, 13]: 3.3 | Residual ratio [2, 14]: 100% | pH [2, 14]: 3.4 | pH value of the solution [3]: 3.5 | Peak area ratio to total peak area [4, 15]: 94.40% | pH observed [4, 15]: 1.2 | Peak area ratio to total peak area [4, 16]: 86.00% | pH observed [4, 16]: 1.2 | Peak area ratio to total peak area [4, 17]: 74.62% | pH observed [4, 17]: 1.2 | Peak area ratio to total peak area [4, 18]: 65.04% | pH observed [4, 18]: 1.2 | Peak area ratio to total peak area [4, 19]: 98.89% | pH observed [4, 19]: 1.1 | Peak area ratio to total peak area [4, 20]: 98.82% | pH observed [4, 20]: 2.0 | Peak area ratio to total peak area [4, 21]: 98.24% | pH observed [4, 21]: 2.0 | Peak area ratio to total peak area [4, 22]: 97.35% | pH observed [4, 22]: 2.0 | Peak area ratio to total peak area ([4]; human ghrelin 0.5 mg/mL in Mcllvain buffer, pH 2, 25±2°C, 48 hr. after, listed as human ghrelin): less than 98% | Peak area ratio to total peak area [4, 23]: 96.46% | pH observed [4, 23]: 2.0 | Peak area ratio to total peak area [4, 24]: 99.07% | pH observed [4, 24]: 2.0 | Peak area ratio to total peak area [4, 25]: 98.98% | pH observed [4, 25]: 3.1 | Peak area ratio to total peak area ([4]; human ghrelin 0.5 mg/mL in Mcllvain buffer, pH 3, 25±2°C, 24 hr. after): 98.77%
